How the values were obtained:
native geph = assay: µSPOT peptide microarray binding assay with native geph from mouse brain lysate; conditions: µSPOT peptide microarray, GlyRβ full positional scan, native geph from mouse brain lysate; intensity normalised to wild-type sequence DLRSNDFSIVGSLPR (=1)
gephE = assay: µSPOT peptide microarray binding assay with recombinant gephE; conditions: µSPOT peptide microarray, GlyRβ full positional scan, recombinant gephE; intensity normalised to wild-type sequence DLRSNDFSIVGSLPR (=1)
FL-geph = assay: µSPOT peptide microarray binding assay with full-length geph; conditions: µSPOT peptide microarray, GlyRβ full positional scan, intensity normalised to wild-type sequence DLRSNDFSIVGSLPR (=1)

Native geph Binding Intensity [norm.] (native geph) | gephE Binding Intensity [norm.] (gephE) | Fl-geph Binding Intensity [norm.] (FL-geph) | Sequence
0.42 | 0.6 | 0.57 | DLRSNDFSNVGSLPR [GlyRβ_Full_Positional_Scan_179, GlyR β 414-428 variant I422N]
0.48 | 0.64 | 0.97 | DLRSNDFSPVGSLPR [GlyRβ_Full_Positional_Scan_165, GlyR β 414-428 variant I422P]
0.32 | 0.57 | 0.53 | DLRSNDFSQVGSLPR [GlyRβ_Full_Positional_Scan_180, GlyR β 414-428 variant I422Q]
0.16 | 0.57 | 0.62 | DLRSNDFSRVGSLPR [GlyRβ_Full_Positional_Scan_172, GlyR β 414-428 variant I422R]
0.27 | 0.52 | 0.87 | DLRSNDFSSVGSLPR [GlyRβ_Full_Positional_Scan_175, GlyR β 414-428 variant I422S]
0.31 | 0.53 | 0.95 | DLRSNDFSTVGSLPR [GlyRβ_Full_Positional_Scan_176, GlyR β 414-428 variant I422T]
0.2 | 0.59 | 0.67 | DLRSNDFSWVGSLPR [GlyRβ_Full_Positional_Scan_168, GlyR β 414-428 variant I422W]
0.48 | 0.69 | 0.84 | DLRSNDFSYVGSLPR [GlyRβ_Full_Positional_Scan_169, GlyR β 414-428 variant I422Y]
0.23 | 0.56 | 0.61 | DLRSNDFVIVGSLPR [GlyRβ_Full_Positional_Scan_146, GlyR β 414-428 variant S421V]
0.24 | 0.73 | 0.79 | DLRSNDFWIVGSLPR [GlyRβ_Full_Positional_Scan_148, GlyR β 414-428 variant S421W]
0.27 | 0.7 | 0.85 | DLRSNDFYIVGSLPR [GlyRβ_Full_Positional_Scan_149, GlyR β 414-428 variant S421Y]
0.37 | 0.49 | 0.55 | DLRSNDGSIVGSLPR [GlyRβ_Full_Positional_Scan_122, GlyR β 414-428 variant F420G]
0.44 | 0.57 | 0.61 | DLRSNDHSIVGSLPR [GlyRβ_Full_Positional_Scan_133, GlyR β 414-428 variant F420H]
0.46 | 0.57 | 0.66 | DLRSNDISIVGSLPR [GlyRβ_Full_Positional_Scan_123, GlyR β 414-428 variant F420I]
0.3 | 0.53 | 0.61 | DLRSNDKSIVGSLPR [GlyRβ_Full_Positional_Scan_134, GlyR β 414-428 variant F420K]
0.44 | 0.58 | 0.69 | DLRSNDLSIVGSLPR [GlyRβ_Full_Positional_Scan_124, GlyR β 414-428 variant F420L]
0.32 | 0.43 | 0.51 | DLRSNDMSIVGSLPR [GlyRβ_Full_Positional_Scan_138, GlyR β 414-428 variant F420M]
0.4 | 0.52 | 0.63 | DLRSNDNSIVGSLPR [GlyRβ_Full_Positional_Scan_139, GlyR β 414-428 variant F420N]
0.34 | 0.54 | 0.65 | DLRSNDPSIVGSLPR [GlyRβ_Full_Positional_Scan_125, GlyR β 414-428 variant F420P]
0.43 | 0.48 | 0.66 | DLRSNDQSIVGSLPR [GlyRβ_Full_Positional_Scan_140, GlyR β 414-428 variant F420Q]
0.41 | 0.63 | 0.77 | DLRSNDRSIVGSLPR [GlyRβ_Full_Positional_Scan_132, GlyR β 414-428 variant F420R]

Native geph Binding Intensity [norm.] (native geph) | gephE Binding Intensity [norm.] (gephE) | Fl-geph Binding Intensity [norm.] (FL-geph) | Sequence
0.35 | 0.51 | 0.46 | DLRSNDSSIVGSLPR [GlyRβ_Full_Positional_Scan_135, GlyR β 414-428 variant F420S]
0.36 | 0.47 | 0.51 | DLRSNDTSIVGSLPR [GlyRβ_Full_Positional_Scan_136, GlyR β 414-428 variant F420T]
0.38 | 0.52 | 0.76 | DLRSNDVSIVGSLPR [GlyRβ_Full_Positional_Scan_126, GlyR β 414-428 variant F420V]
0.97 | 0.96 | 0.94 | DLRSNEFSIVGSLPR [GlyRβ_Full_Positional_Scan_111]
0.34 | 0.74 | 0.78 | DLRSNFFSIVGSLPR [GlyRβ_Full_Positional_Scan_107]
0.65 | 1 | 1.07 | DLRSNGFSIVGSLPR [GlyRβ_Full_Positional_Scan_102]
0.48 | 0.86 | 0.85 | DLRSNHFSIVGSLPR [GlyRβ_Full_Positional_Scan_113]
0.35 | 0.79 | 0.97 | DLRSNIFSIVGSLPR [GlyRβ_Full_Positional_Scan_103]
0.37 | 0.8 | 0.98 | DLRSNKFSIVGSLPR [GlyRβ_Full_Positional_Scan_114]
0.37 | 0.78 | 0.9 | DLRSNLFSIVGSLPR [GlyRβ_Full_Positional_Scan_104]
0.62 | 0.85 | 0.84 | DLRSNMFSIVGSLPR [GlyRβ_Full_Positional_Scan_118]
0.57 | 0.89 | 0.69 | DLRSNNFSIVGSLPR [GlyRβ_Full_Positional_Scan_119]
0.58 | 0.89 | 0.85 | DLRSNPFSIVGSLPR [GlyRβ_Full_Positional_Scan_105]
0.53 | 0.95 | 0.78 | DLRSNQFSIVGSLPR [GlyRβ_Full_Positional_Scan_120]
0.36 | 0.84 | 0.86 | DLRSNRFSIVGSLPR [GlyRβ_Full_Positional_Scan_112]
0.75 | 0.89 | 0.92 | DLRSNSFSIVGSLPR [GlyRβ_Full_Positional_Scan_115]
0.75 | 0.85 | 0.97 | DLRSNTFSIVGSLPR [GlyRβ_Full_Positional_Scan_116]
0.58 | 0.81 | 0.95 | DLRSNVFSIVGSLPR [GlyRβ_Full_Positional_Scan_106]
0.32 | 0.79 | 0.65 | DLRSNWFSIVGSLPR [GlyRβ_Full_Positional_Scan_108]
0.38 | 0.82 | 0.7 | DLRSNYFSIVGSLPR [GlyRβ_Full_Positional_Scan_109]
0.86 | 0.95 | 0.85 | DLRSPDFSIVGSLPR [GlyRβ_Full_Positional_Scan_085]

— PMC7753147, “High-throughput determination of protein affinities using unmodified peptide libraries in nanomolar scale” (iScience, 2020)
